# Source: paper PMC9385959, “Mammalian derived lipocalin and secretoglobin respiratory allergens strongly bind ligands with potentially immune modulating properties” (Frontiers in Allergy, 2022)
# Where two headings read alike, the source gives them in different places.
# What was measured:
# Fel d 1 = target: T1, Fel d 1 (Felis catus, UniProt P30438+P30440); assay: Fluorochrome binding to Fel d 1 (emission spectra and titration); set-up: species or system cat
# T1 construct: polyhistidine tag (C); made in house; host or cells: E. coli Rosetta-gami 2
# T1 sequence (P30438+P30440 with tags, fused parts or gaps): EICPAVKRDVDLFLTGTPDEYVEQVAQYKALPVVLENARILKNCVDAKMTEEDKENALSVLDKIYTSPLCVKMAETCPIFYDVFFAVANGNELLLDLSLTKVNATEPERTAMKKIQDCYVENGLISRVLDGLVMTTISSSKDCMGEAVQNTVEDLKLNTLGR
# Description: (§1) Stock solutions were prepared at a concentration of 10 mM in 100% ethanol for the fluorochromes 1-aminoanthracene (1-AMA), 8-anilino-1-naphthalensulfonic acid (1,8-ANS) and for all ligands, and in 100% methanol for n-phenyl-1-naphthylamine (1-NPN), respectively. Iron catecholate ligands (siderophores) were prepared as previously described ([46]). Fluorochrome-protein complexes were analyzed at an equimolar concentration of 5 μM in PBS with 5% ethanol in a volume of 100 μL per well in black 96-well non-binding microplates (Greiner Bio-One GmbH, Frickenhausen, Germany). Solutions containing only protein or the respective fluorescent probe in PBS with 5% ethanol served as controls. Fluorochrome-protein complexes were incubated with orbital shaking for 10 min at 500 rpm at room temperature (RT) before measurement using the fluorescence reader TECAN Infinite 200 Pro (Tecan Trading AG, Switzerland). Excitation wavelengths were fixed at 380 nm for 1-AMA and 1,8-ANS, and 337 nm for 1-NPN. Fluorescence emission spectra were recorded in 5 nm steps between 420 and 560 nm for 1-AMA and 1,8-ANS and between 380 and 500 nm for 1-NPN. The establishment of fluorescent quenching assay parameters for each allergen is explained in the results Section Fluorescence-quenching assay set up. Binding affinities were analyzed by non-linear regression in GraphPad Prism Version 9.3.1 (GraphPad Software, LLC). For the ligand competition assays, ligands were added to fluorochrome-allergen complexes with a final buffer composition of 5% ethanol in PBS in a volume of 100 μL and incubated for 30 min at 500 rpm at RT and further equilibrated for another 30 min without shaking before fluorescence measurement.
# (§2) We established four specific parameters for each allergen to set up a fluorescence quenching assay for screening a large array of potential ligands: (i) a compatible fluorochrome, (ii) the optimal emission wavelength to analyze the fluorescence intensities of the fluorochrome-allergen complex, (iii) the binding affinities of the fluorochrome-allergen complex (Kd values) and (iv) optimal fluorochrome concentrations (EC50 values).
# (§3) For each allergen, we identified a suitable fluorescence probe by adding equimolar concentrations of either 1-AMA or 1,8-ANS to the recombinant proteins. […] 1-AMA was chosen for the guinea pig lipocalin Cav p 1 isoallergens, rabbit lipocalin Ory c 2, and rabbit secretoglobin Ory c 3. Fluorescence intensities increased 20–60-fold upon binding. While the emission maxima shifted from 565 to 485 nm for lipocalin fluorochrome-allergen pairs, the blue shift was less pronounced for the Ory c 3 secretoglobin-1-AMA complex to 505 nm (Figure 4B). […] Respective Kd were calculated after background subtraction (Figure 4B). As ethanol gave a high background with 1-NPN, these experiments were carried out with methanol to […] the signal-to-noise-ratio.
# (§4) We evaluated the binding affinities of the fluorochromes to the allergens by dose-dependent titration curves. Increasing fluorochrome concentrations were added to a fixed protein concentration of 5 μM until saturation (Figure 5). Fluorescence intensities were recorded at specific emission maxima for each fluorochrome-allergen complex, determined using the emission spectra shown in Figure 4. We analyzed the specific binding of fluorochrome-allergen complexes by non-linear regression and calculated equilibrium dissociation constants (Kd) and EC50 values (Table 2). EC50 values are equal to fluorochome concentrations in which half of the allergen binding sites are saturated and these concentrations were used in subsequent ligand competition assays. We chose a one-site specific binding model for all allergens, except for human LCN1, where multiple binding site analysis emerged as the model of best fit and two Kd values were calculated. Evidence for internal and external binding sites for 1,8-ANS and LCN1 were already reported ([58]).
# Fel d 4 = target: T2, Fel d 4 (Felis catus, UniProt Q5VFH6); assay: Fluorochrome binding to Fel d 4 (emission spectra and titration); set-up: species or system cat; details: for Increase of fluorescence intensity upon binding: 5 μM Fel d 4 with 5 μM fluorochrome
# T2 construct: polyhistidine tag (C); made in house; host or cells: E. coli Rosetta-gami 2
# T2 sequence (Q5VFH6 16-186): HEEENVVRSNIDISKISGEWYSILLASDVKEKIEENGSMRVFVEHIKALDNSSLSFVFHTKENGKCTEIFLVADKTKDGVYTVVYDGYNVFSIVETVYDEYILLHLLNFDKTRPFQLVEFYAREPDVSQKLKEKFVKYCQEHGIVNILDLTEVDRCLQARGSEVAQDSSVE
# Description: as §1, §2, §3, §4
# Can f 6 = target: T3, Can f 6 (Canis lupus familiaris, UniProt H2B3G5); assay: Fluorochrome binding to Can f 6 (emission spectra and titration); set-up: species or system dog; details: for Increase of fluorescence intensity upon binding: 5 μM Can f 6 with 5 μM fluorochrome
# T3 construct: polyhistidine tag (C); made in house; host or cells: E. coli Rosetta-gami 2
# T3 sequence (H2B3G5 16-190): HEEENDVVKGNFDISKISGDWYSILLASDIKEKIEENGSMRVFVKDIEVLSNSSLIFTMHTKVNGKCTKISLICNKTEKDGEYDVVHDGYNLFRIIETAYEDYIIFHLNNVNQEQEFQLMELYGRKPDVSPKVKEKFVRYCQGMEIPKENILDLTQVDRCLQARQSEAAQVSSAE
# Description: as §1, §2, §3, §4
# [1] = Thermal stability by circular dichroism spectroscopy with temperature ramping; format: physicochemical; details: temperature ramping 20–95°C, 10 μmol/L protein
# Description: Secondary protein structure formation and thermal stability of the recombinant proteins were determined by circular dichroism (CD) spectroscopy. Recombinant proteins were diluted with ultrapure water to a concentration of 10 μmol/L in a volume of 300 μL to measure their CD spectra using the Chirascan CD spectrometer (Applied Photophysics). Far-ultraviolet CD spectra were recorded at 180–260 nm (0.8 nm bandwidth, 0.4 s interval, 3 repeats) in a cuvette of 0.1 cm path length. Thermal sensitivity was assessed by ramping temperatures (20–95°C) with an internal temperature probe and continuous CD-signal measurements (ramping rate 0.82°C per minute, no repeats). After 10 min at 95°C another CD spectrum was recorded with 3 repeats, then the temperature was decreased back to 20°C for a final scan with 3 repeats to analyze the refolding capacity. The read-out was converted with respective protein details, such as molecular weight and number of amino acids, into degrees^*cm2^*dmol−1. Chirascan Global 3 Analysis Software (Applied Photophysics) and DichroWeb online server ([36]) with solutions from the CDSSTR method and reference data set 7 ([37]) were used to analyze and interpret CD spectra, measured as a function of temperature.
Compound,EC50 (Fel d 1) [µM],Kd (Fel d 1) [µM],Increase of fluorescence intensity upon binding (Fel d 1; 5 μM Fel d 1 with 5 μM fluorochrome),"Kd (Fel d 4; 5 μM Fel d 4, one-site specific binding, read-out: Fluorochrome dissociation constant Kd) [µM]","EC50 (Fel d 4; 5 μM Fel d 4, read-out: EC50 fluorochrome concentration) [µM]",Increase of fluorescence intensity upon binding (Fel d 4),"Kd (Can f 6; 5 μM Can f 6, Figure 5C, read-out: Kd, one-site fit model of total and non-specific binding) [µM]","Kd (Can f 6; 5 μM Can f 6, one-site specific binding, read-out: Fluorochrome dissociation constant Kd) [µM]","EC50 (Can f 6; 5 μM Can f 6, read-out: EC50 fluorochrome concentration) [µM]",Increase of fluorescence intensity upon binding (Can f 6),Melting point [1] [C°]
"c1ccc(Nc2cccc3ccccc23)cc1 [1-NPN, n-phenyl-1-naphthylamine]",21.1,35.5,2–3 fold,81.7,28,2–3 fold,59.9,34.9,20.7,2–3 fold,–
"CN(C)c1cccc2c(S(=O)(=O)NCCCCCCCCCCC(=O)O)cccc12 [DAUDA, 11-(Dansylamino)undecanoic acid]",–,–,–,–,–,neither reacted,–,–,–,neither reacted,–
"LCN1: recombinant human lipocalin-1 (tear lipocalin, von Ebner's gland protein), non-allergenic control, produced in E. coli",–,–,–,–,–,–,–,–,–,–,74.8 ± 0.2
